According to article PMC10452460, “In Silico, In Vitro, and In Vivo Investigations on Adapalene as Repurposed Third Generation Retinoid against Multiple Myeloma and Leukemia” (Cancers, 2023):

Molecular target: T1, c-MYC (Homo sapiens, UniProt P01106)
T1 construct: recombinant human c-MYC protein (ab169901, Abcam)
Assay: microscale thermophoresis with Blue-NHS labelled c-MYC ([…])
Type: binding

T1 sequence (P01106 16-454): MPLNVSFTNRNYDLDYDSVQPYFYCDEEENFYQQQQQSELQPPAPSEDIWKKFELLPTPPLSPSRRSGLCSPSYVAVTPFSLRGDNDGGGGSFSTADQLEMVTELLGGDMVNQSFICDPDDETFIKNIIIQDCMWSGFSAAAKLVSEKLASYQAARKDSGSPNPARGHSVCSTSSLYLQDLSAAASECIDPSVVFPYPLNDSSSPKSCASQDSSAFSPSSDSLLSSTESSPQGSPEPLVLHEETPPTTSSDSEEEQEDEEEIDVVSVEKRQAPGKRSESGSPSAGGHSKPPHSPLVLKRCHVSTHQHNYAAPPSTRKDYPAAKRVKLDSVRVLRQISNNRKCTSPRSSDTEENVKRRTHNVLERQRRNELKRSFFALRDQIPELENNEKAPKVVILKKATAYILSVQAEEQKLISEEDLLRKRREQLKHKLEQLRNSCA

Kd: 3.05 µM
Compound: COc1ccc(-c2ccc3cc(C(=O)O)ccc3c2)cc1C12CC3CC(CC(C3)C1)C2 [adapalene]
